Entries after “also recorded” stand apart in the source; their conditions may differ.
Columns and labels:
[1] = system: women with menstrual cycle-induced symptoms (e.g. PMS, PMDD); assay: Closed label trials of 3-MMC for menstrual cycle-induced symptoms (case reports of 11 women); format: in vivo, human
From the text: The following case studies exemplify some aspects of some embodiments of the methods of the present invention for treating perimenstrual disorders in subjects suffering at least one menstrual cycle-induced symptom by administering 3-MMC.
Detailed reports of 11 experiences of women with unlabeled (“pill”) 3-MMC for menstrual cycle-induced symptoms.
Between the second half of 2018 and the first months of 2019, eleven women participated in a blinded trial of 3-MMC (the “pill”) administered to alleviate their menstrual cycle-induced symptoms. The subjects tried different doses ranging from 12.5 mg. up to 50 mg.
Each one of the women used the 3-MMC for relief for at least two to three consecutive menstrual periods, with the number of trials varying from two to seven per woman, making a total of 45 trials.
Thus, the experience with 3-MMC for menstrual cycle-induced symptoms reported here is from […] separate trials.

[2] = animal models, cited from earlier work
[3] = 12.5 mg then 25 mg with an interval of five hours (Ana)
[4] = one dose of 12.5 mg plus one dose of 25 mg, total 37.5 mg
[5] = one dose of 12.5 mg, individual trials
[6] = one dose of 25 mg, individual trials
[7] = two doses of 12.5 mg (Ana: interval of five hours; Jenny: equivalent to 25 mg)
[8] = two doses of 25 mg, one hour interval, total 50 mg (Katy)

For `CNC(C)C(=O)c1cccc(C)c1` (centres unmarked) [3-MMC, 3-methylmethcathinone], the “relief of symptoms at low dose (overview)” value ([1]; 12.5 mg) was “while not consistent, was often effective in providing relief of symptoms”, the Psychological reaction [1, 3] was “experienced less emotional distress and felt much calmer” and the Side effects [1, 3] was “an outbreak of acne”. The “Response summary of the subject” value ([1]; 37.5 mg dose) was “more aware of themself, more concentrated, energetic, daring, calmer, but they would still be irritated or angry; also recorded: Rebecca felt actually very good”, the “undesired side effects (overview)” value ([1]; 30-35 mg) was “some undesired side effects, such as tachycardia or temperature changes were occasionally more noticeable” and the “effect when administered in anticipation of symptoms” value ([1]; administration prior to symptom onset) was “can significantly reduce the intensity as well as duration of many menstrual cycle induced symptoms”. The “most commonly reported psychological and emotional effects” value ([1]; all subjects) was “enhanced their overall sense of well-being, increased energy levels, induced calmness and relaxation and heightened abilities of concentration; also recorded: a sense of relaxation and calm, often combined with heightened energy and ability to concentrate”, the “most commonly reported side effects” value ([1]; all subjects, 12.5-50 mg) was “tachycardia, sensation of body temperature changes (usually feeling warmer or sometimes colder) and sweating” and the “overall reported experience / relief of symptoms” value ([1]; eleven women, about 60 trials, doses 12.5 mg up to 50 mg) was “Ten out of the eleven reported a rather good to a very positive experience; also recorded: A desired positive effect was achieved with most trials; also recorded: provided relief from more than one of the reported menstrual cycle-induced symptoms”. For the same compound, the “side effects, individual subject's summary over all their doses” value ([1]; individual subjects, all doses taken) was “they never perceived non-desired side-effects; also recorded: increased heartbeat and stomach pain on empty stomach; also recorded: noticed body temperature changes; also recorded: an unfamiliar tingling at the back of the tongue and throat; also recorded: They experienced no side effects or physical reactions worth mentioning; also recorded: had no physical reactions or undesired side effects with any of the doses; also recorded: some light and non-desirable effects such as body temperature changes”, the Psychological reaction [1, 4] was “more willing to do things with an energetic flow that lasted up to four hours; also recorded: they could still sense anger and irritation, but now more in control; also recorded: They felt less irritated, less angry and more relaxed; also recorded: No perceived psychological effect; also recorded: felt very much calmer and much more relaxed than usual; also recorded: felt more awake, more energetic, more alive, therefore less tired and irritated” and the Side effects [1, 4] was “Accelerated heartbeat, dizziness, feeling hot and sweating and Accelerated heartbeat, sweating and lack of appetite and None and Sweating and appetite loss”. For the same compound, the Psychological reaction [1, 5] was “felt more emotionally stable after one hour, less oversensitive, less anxious and they had a slightly heightened mood and felt less depressed, not lethargic, down or exhausted anymore and They were no longer feeling down and exhausted and Exhaustion, feeling down, mood swings, feeling alone and helpless, over sensitive, powerlessness, forgetfulness, willing to cry and Experiencing less anxiety and nervousness, feeling calmer and not very focused, only a little and less irritable but not a major difference and more relaxed, less emotionally distressed and Calmer and more stable and less mood swings, less upset, less emotional and less tired and Ines felt calmer, less nervous and emotional and less distressed and tense and None (they felt no effect whatsoever with this small dose) and None and None, not better nor worse”, the Side effects [1, 5] was “perceived no negative physical reactions or side effects and Stomach pain and none and none (apart from feeling warmer) and Tingling tongue, light somnolence and None” and the Psychological reaction [1, 6] was “emotional distress, mood swings and anxiety decreased; also recorded: Ana felt calmer and more relaxed; also recorded: felt less angry and irritated; also recorded: they were more focused, having a heightened mood, they felt less helpless and more in control; also recorded: experienced no emotional distress or feeling down or any tension; also recorded: no longer feeling low, anxious or distressed; also recorded: feeling focused and motivated to study; also recorded: feeling focused and more concentrated; also recorded: they could focus and concentrate on their studies and was also more motivated; also recorded: they felt relaxed, calmer; also recorded: Fanny felt calmer and stable; also recorded: no longer feeling upset, felt a lot calmer; also recorded: Small, but transient improvement in their mood; also recorded: felt more relaxed, less tense; also recorded: feeling noticeably less upset and less sad; also recorded: Jenny felt better, less anxious, less unhappy; also recorded: felt better and more relaxed; also recorded: Her sadness faded away; also recorded: relief of the sadness, not down or stressed anymore; also recorded: experienced slightly less tension; also recorded: a bit calmer, after two hours very relaxed, not crying anymore”. The Side effects [1, 6] was “none and None and stomach ache (on an empty stomach) and a higher heart rate and Cold hands and feet and drowsiness and some muscle pain or tension and Temporal slight stomach and muscle pain and Perceived body temperature changes, tingling sensation in the throat and Difficulty to go to sleep and somewhat tired and body temperature changes”, the interaction with paracetamol ([1]; one subject (Bea), 12.5 mg 3-MMC combined with paracetamol) was “did not experience any undesirable interactions with the 3-MMC; also recorded: without any noticeable substance interaction or undesired effect” and the “side effects with repeated use” value ([1]; repeated use) was “side-effects tend to diminish over time with repeated use of 3-MMC”. The “effect when administered after onset of symptoms” value ([1]; some subjects) was 3-MMC was effective even when administered after the onset of menstrual cycle-induced symptoms, the “effect on somatic symptoms” value ([1]; some subjects (e.g. headache, physical pain)) was “administration of 3-MMC resulted in disappearance of somatic symptoms (e.g. headache); also recorded: can also produce a reduction in somatic symptoms (e.g. physical pain); also recorded: some of the subjects reported alleviation of somatic symptoms” and the perceived effect ([1]; subject Gertie, 40 mg in one intake) was “a bit too much”. The perceived benefit ([1]; subject Gertie, doses between 10 mg and 20 mg) was “They didn't perceive any benefit”, the perceived benefit ([1]; subject Gertie, doses between 20 and 30 mg) was “They felt positive effects” and the “response and psychological effects” value ([1]; subject Gertie, one or two pills a couple of days before menstruation, usual dose 20-25 mg) was “feels less tense; also recorded: they are able to take decisions again; also recorded: a radical positive life change”. For the same compound, the response summary ([1]; subject Ines, alternating doses of 12.5 mg and 25 mg, seven occasions) was “The main effect was calming and relaxing; also recorded: no significant dose response has been observed”, the Psychological reaction [1, 7] was “their emotional distress, feeling down, mood swings, helplessness and anxiety declined; also recorded: felt more energized, no longer down or sad” and the Side effects [1, 7] was “none and None”. For the same compound, the Psychological reaction [1, 8] was “no longer angry although they could still feel irritated; also recorded: They experienced reduced irritability and anger; also recorded: felt more energetic, less irritated and after two hours they were very calm”, the Side effects [1, 8] was “Increased heartbeat, sweating and loss of appetite; also recorded: No noticeable side effects; also recorded: a brief period (one hour) of depression” and the “cumulative positive effect of repeated administration” value ([1]; two or more consecutive doses within about 24 hours of each other) was “taking the pill two consecutive days made the effect of the second one last longer; also recorded: Possibly a cumulative effect; also recorded: a sort of a cumulative positive effect; also recorded: the positive effects of 3-MMC reportedly persisted; also recorded: positive effects persist”. The “time of peak serum concentrations” value ([2]; after oral administration) was 5 to 10 min and the apparent plasma half-life ([2]; after oral ingestion) was “approximately 0.8 hours”.

From patent US12485100B2, “Treatment of menstrual cycle-induced symptoms” (Period Pill BV, priority 2019, dated 2025)
